Data published in ChEMBL document CHEMBL3272187, “Synthesis of N-hydroxyacetaminophen, a postulated toxic metabolite of acetaminophen, and its phenolic sulfate conjugate” (J Med Chem, 1978).

Legend:
Format in all cases: physicochemical
[1] = Aqueous stability of the compound in 100 mM Na2HPO4 buffer assessed as half life at 2 mM at pH 7.0 at 37 degC by ferric chloride assay
[2] = Aqueous stability of the compound in 100 mM Na2HPO4 buffer assessed as half life at 2 mM at pH 8.0 at 37 degC by ferric chloride assay
[3] = Aqueous stability of the compound in 100 mM HCl buffer assessed as half life at 2 mM at pH 1.5 at 37 degC by ferric chloride assay
[4] = Aqueous stability of the compound in 100 mM Na2HPO4 buffer assessed as half life at 2 mM at pH 7.2 at 37 degC by ferric chloride assay
[5] = Aqueous stability of the compound in 100 mM NaOH buffer at 2 mM at pH 12.7 at 37 degC by ferric chloride assay; details: pH 12.7, 2000 µM
[6] = Aqueous stability of the compound in 100 mM Na2HPO4 buffer assessed as half life at 2 mM at pH 6.6 at 37 degC by ferric chloride assay
[7] = Aqueous stability of the compound in 100 mM Na2HPO4 buffer assessed as half life at 2 mM at pH 8.5 at 37 degC by ferric chloride assay

Compound	half-life at 2000 µM [1] [h]	half-life at 2000 µM [2] [min]	half-life at 2000 µM [3] [h]	half-life at 2000 µM [4] [h]	Stability [5]	half-life at 2000 µM [6] [h]	half-life at 2000 µM [7] [h]
CC(=O)N(O)c1ccc(O)cc1	1.1	9.8	18.3	0.35	Stable	2.5	–
CC(=O)N(O)c1ccc(OS(=O)(=O)[O-])cc1.[K+]	–	–	15.2	–	Stable	–	217
